# Where two headings read alike, the source gives them in different places. Starred links: 1 amine or outer side, 2 acyl side, 3 side chain; linkers in the order of their positions; H or OH if unused. Non-standard residues stand in square brackets, D forms with d. Residues, ends and D or L forms follow the SMILES beside them. Groups on a side chain read outwards from the residue. *: point of attachment. C18 diacid = O=C(O)CCCCCCCCCCCCCCCCC(=O)*; γGlu = O=C(O)[C@H](CCC(=O)[*:2])N[*:1]; AEEA = NCCOCCOCC(=O)O; Aib = CC(C)(N)C(=O)O
# How the values were obtained:
# CRF1R receptor = target: T1, CRF1R receptor (Homo sapiens, UniProt P34998); assay: cAMP activity at anti-target CRF1R, CHO-K1 cell line clone 2 (Example 19.10); format: cell-based; conditions: CRF1R CHO-K1 clone 2; for EC50: 0% HSA, read-out: EC50 [nM] 0% HSA; for Emax: 100% = Sauvagine at 100 nM
# T1 construct: host or cells: CHO-K1 clone 2
# T1 sequence (P34998 24-415): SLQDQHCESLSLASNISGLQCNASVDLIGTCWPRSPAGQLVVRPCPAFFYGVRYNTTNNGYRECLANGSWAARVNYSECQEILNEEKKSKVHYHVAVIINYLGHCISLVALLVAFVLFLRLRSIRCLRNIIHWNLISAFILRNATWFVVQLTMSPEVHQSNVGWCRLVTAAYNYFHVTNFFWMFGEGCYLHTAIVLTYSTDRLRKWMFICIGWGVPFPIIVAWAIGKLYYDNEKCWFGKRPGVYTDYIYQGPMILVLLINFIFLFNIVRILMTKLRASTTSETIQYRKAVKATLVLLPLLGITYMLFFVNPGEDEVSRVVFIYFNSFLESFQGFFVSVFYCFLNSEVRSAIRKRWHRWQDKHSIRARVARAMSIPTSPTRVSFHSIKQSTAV
# Outline: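 The cAMP read-out used the same protocol as the previous assay, except that Sauvagine at 100 nM set the 100% activation control. Cells were CHO-K1 clone 2 overexpressing CRF1R, cultured in F12 medium with 10% FBS and G418 and stored frozen until use.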
# human CRF2α receptor = target: T2, human CRF2α receptor (Homo sapiens, UniProt Q13324); assay: cAMP agonism at human CRF2 α receptor in TeloHEAC cells (Example 7); format: cell-based; conditions: cAMP HTRF, TeloHEAC cells stably expressing human CRF2 α
# T2 construct: expressed in transfected cells; host or cells: TeloHEAC
# T2 sequence (Q13324 1-411): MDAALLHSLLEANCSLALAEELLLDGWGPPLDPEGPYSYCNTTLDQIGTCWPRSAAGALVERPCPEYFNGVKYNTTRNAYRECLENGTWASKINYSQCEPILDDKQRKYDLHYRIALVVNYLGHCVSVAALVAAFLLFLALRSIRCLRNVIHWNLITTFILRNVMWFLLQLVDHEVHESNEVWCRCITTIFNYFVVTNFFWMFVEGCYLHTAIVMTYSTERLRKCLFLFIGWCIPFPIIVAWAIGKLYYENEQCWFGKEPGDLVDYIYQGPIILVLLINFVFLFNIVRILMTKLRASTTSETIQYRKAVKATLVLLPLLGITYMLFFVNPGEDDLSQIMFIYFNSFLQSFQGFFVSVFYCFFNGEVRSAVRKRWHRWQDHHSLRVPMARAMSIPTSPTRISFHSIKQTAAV
# Outline: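 Thawed frozen stably transfected cells in HBSS/20 mM HEPES (0% or 0.1% HSA) plus 2 mM IBMX were exposed to compound at 2000 cells/well for 30 min at room temperature. Intracellular cAMP was read by HTRF (665/620 nm ratio) after 1 h lysis; EC50 was derived with 1000 nM urocortin 2 set as 100%.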
# [1] = 0% HSA, read-out: EC50 [nM], 0% HSA
# [2] = 0.1% HSA, read-out: EC50 [nM], 0.1% HSA
SMILES,EC50 (CRF1R receptor) [nM],Emax (CRF1R receptor) [%],EC50 (human CRF2α receptor; [1]) [nM],EC50 (human CRF2α receptor; [2]) [nM]
CC[C@H](C)[C@H](N)C(=O)N[C@H](C(=O)N[C@@H](CC(C)C)C(=O)N[C@@H](CO)C(=O)N[C@@H](CC(C)C)C(=O)N[C@@H](CC(=O)O)C(=O)N[C@H](C(=O)N1CCC[C@H]1C(=O)N[C@H](C(=O)N[C@@H](CCCCN)C(=O)N[C@@H](CC(C)C)C(=O)N[C@@H](CCCCNC(=O)COCCOCCNC(=O)COCCOCCNC(=O)CC[C@H](NC(=O)CCCCCCCCCCCCCCCCC(=O)O)C(=O)O)C(=O)N[C@@H](CCC(N)=O)C(=O)N[C@H](C(=O)N[C@@H](CC(C)C)C(=O)N[C@@H](CC(C)C)C(=O)N[C@@H](CCCCN)C(=O)N[C@@H](CCC(N)=O)C(=O)N[C@@H](CCC(=O)O)C(=O)N[C@@H](CCCNC(=N)N)C(=O)N[C@@H](CCC(N)=O)C(=O)N[C@@H](CCCCN)C(=O)NC(C)(C)C(=O)N[C@@H](CCC(N)=O)C(=O)N[C@@H](CCCNC(=N)N)C(=O)N[C@@H](CCC(=O)O)C(=O)N[C@@H](CCCCN)C(=O)N[C@@H](C)C(=O)N[C@@H](CCC(=O)O)C(=O)N[C@@H](CCCCN)C(=O)N[C@@H](CC(N)=O)C(=O)N[C@@H](CCCCN)C(=O)N[C@@H](CCC(N)=O)C(=O)N[C@H](C(=O)N[C@@H](CC(C)C)C(=O)N[C@@H](C)C(=O)N[C@@H](CCC(N)=O)C(=O)N[C@H](C(N)=O)C(C)C)[C@@H](C)CC)[C@@H](C)CC)[C@@H](C)CC)C(C)C)C(C)C [compound 116] (H-IVLSLDVPIKLK([AEEA-AEEA-γGlu-C18 diacid])QILLKQERQK[Aib]QREKAEKNKQILAQV-NH2; N-terminus assumed),> 100,0.8,0.7,–
CC[C@H](C)[C@H](N)C(=O)N[C@H](C(=O)N[C@@H](CC(C)C)C(=O)N[C@@H](CO)C(=O)N[C@@H](CC(C)C)C(=O)N[C@@H](CC(=O)O)C(=O)N[C@H](C(=O)N1CCC[C@H]1C(=O)N[C@H](C(=O)N[C@@H](CCCCN)C(=O)N[C@@H](CC(C)C)C(=O)N[C@@H](CCCCNC(=O)COCCOCCNC(=O)COCCOCCNC(=O)CC[C@H](NC(=O)CCCCCCCCCCCCCCCCC(=O)O)C(=O)O)C(=O)N[C@@H](CCC(N)=O)C(=O)N[C@H](C(=O)N[C@@H](CC(C)C)C(=O)N[C@@H](CC(C)C)C(=O)N[C@@H](CCCCN)C(=O)N[C@@H](CCC(N)=O)C(=O)N[C@@H](CCC(=O)O)C(=O)N[C@@H](CCCNC(=N)N)C(=O)N[C@@H](CCC(N)=O)C(=O)N[C@@H](CCCCN)C(=O)NC(C)(C)C(=O)N[C@@H](CCC(N)=O)C(=O)N[C@@H](CCCNC(=N)N)C(=O)N[C@@H](CCC(N)=O)C(=O)N[C@@H](CCC(N)=O)C(=O)N[C@@H](C)C(=O)N[C@@H](CCC(=O)O)C(=O)N[C@@H](CCCCN)C(=O)N[C@@H](CC(N)=O)C(=O)N[C@@H](CCCCN)C(=O)N[C@@H](CCC(N)=O)C(=O)N[C@H](C(=O)N[C@@H](CC(C)C)C(=O)N[C@@H](C)C(=O)N[C@@H](CCC(N)=O)C(=O)N[C@H](C(N)=O)C(C)C)[C@@H](C)CC)[C@@H](C)CC)[C@@H](C)CC)C(C)C)C(C)C [compound 117] (H-IVLSLDVPIKLK([AEEA-AEEA-γGlu-C18 diacid])QILLKQERQK[Aib]QRQQAEKNKQILAQV-NH2),> 100,-6,0.11,–
CC[C@H](C)[C@H](N)C(=O)N[C@H](C(=O)N[C@@H](CC(C)C)C(=O)N[C@@H](CO)C(=O)N[C@@H](CC(C)C)C(=O)N[C@@H](CC(=O)O)C(=O)N[C@@H](C(=O)N1CCC[C@H]1C(=O)N[C@H](C(=O)N[C@@H](CCCCN)C(=O)N[C@@H](CC(C)C)C(=O)N[C@@H](CCCCNC(=O)COCCOCCNC(=O)COCCOCCNC(=O)CC[C@H](NC(=O)CCCCCCCCCCCCCCCCC(=O)O)C(=O)O)C(=O)N[C@@H](CCC(N)=O)C(=O)N[C@H](C(=O)N[C@@H](CC(C)C)C(=O)N[C@@H](CC(C)C)C(=O)N[C@@H](CCCCN)C(=O)N[C@@H](CCC(N)=O)C(=O)N[C@@H](CCC(=O)O)C(=O)N[C@@H](CCCNC(=N)N)C(=O)N[C@@H](CCC(N)=O)C(=O)N[C@@H](CCCCN)C(=O)NC(C)(C)C(=O)N[C@@H](CCC(N)=O)C(=O)N[C@@H](CCCNC(=N)N)C(=O)N[C@@H](CCC(N)=O)C(=O)N[C@@H](CCCCN)C(=O)N[C@@H](C)C(=O)N[C@@H](CCC(=O)O)C(=O)N[C@@H](CCCCN)C(=O)N[C@@H](CC(N)=O)C(=O)N[C@@H](CCCCN)C(=O)N[C@@H](CCC(N)=O)C(=O)N[C@H](C(=O)N[C@@H](CC(C)C)C(=O)N[C@@H](C)C(=O)N[C@@H](CCC(N)=O)C(=O)N[C@H](C(N)=O)C(C)C)[C@@H](C)CC)[C@@H](C)CC)[C@@H](C)CC)C(C)C)C(C)C [compound 118] (H-IVLSLD[dV]PIKLK([AEEA-AEEA-γGlu-C18 diacid])QILLKQERQK[Aib]QRQKAEKNKQILAQV-NH2; N-terminus assumed),> 100,1.5,0.04,2.13
CC[C@H](C)[C@H](N)C(=O)N[C@H](C(=O)N[C@@H](CC(C)C)C(=O)N[C@@H](CO)C(=O)N[C@@H](CC(C)C)C(=O)N[C@@H](CC(=O)O)C(=O)N[C@H](C(=O)N1CCC[C@H]1C(=O)N[C@H](C(=O)N[C@@H](CCCCN)C(=O)N[C@@H](CC(C)C)C(=O)N[C@@H](CCCCNC(=O)COCCOCCNC(=O)COCCOCCNC(=O)CC[C@H](NC(=O)CCCCCCCCCCCCCCCCC(=O)O)C(=O)O)C(=O)N[C@@H](CCC(N)=O)C(=O)N[C@H](C(=O)N[C@@H](CC(C)C)C(=O)N[C@@H](CC(C)C)C(=O)N[C@@H](CCCCN)C(=O)N[C@@H](CCC(N)=O)C(=O)N[C@@H](CCC(=O)O)C(=O)N[C@@H](CCCNC(=N)N)C(=O)N[C@@H](CCC(N)=O)C(=O)N[C@@H](CCCCN)C(=O)N[C@@H](CCCCN)C(=O)NC(C)(C)C(=O)N[C@@H](CCCNC(=N)N)C(=O)N[C@@H](CCC(N)=O)C(=O)N[C@@H](CCCCN)C(=O)N[C@@H](C)C(=O)N[C@@H](CCC(=O)O)C(=O)N[C@@H](CCCCN)C(=O)N[C@@H](CC(N)=O)C(=O)N[C@@H](CCCCN)C(=O)N[C@@H](CCC(N)=O)C(=O)N[C@H](C(=O)N[C@@H](CC(C)C)C(=O)N[C@@H](C)C(=O)N[C@@H](CCC(N)=O)C(=O)N[C@H](C(N)=O)C(C)C)[C@@H](C)CC)[C@@H](C)CC)[C@@H](C)CC)C(C)C)C(C)C [compound 119] (H-IVLSLDVPIKLK([AEEA-AEEA-γGlu-C18 diacid])QILLKQERQKK[Aib]RQKAEKNKQILAQV-NH2),> 100,0.4,0.13,4.97
CC[C@H](C)[C@H](N)C(=O)N[C@H](C(=O)N[C@@H](CC(C)C)C(=O)N[C@@H](CO)C(=O)N[C@@H](CC(C)C)C(=O)N[C@@H](CC(=O)O)C(=O)N[C@H](C(=O)N1CCC[C@H]1C(=O)N[C@H](C(=O)N[C@@H](CCCCN)C(=O)N[C@@H](CC(C)C)C(=O)N[C@@H](CCCCNC(=O)COCCOCCNC(=O)COCCOCCNC(=O)CC[C@H](NC(=O)CCCCCCCCCCCCCCCCC(=O)O)C(=O)O)C(=O)N[C@@H](CCC(N)=O)C(=O)N[C@H](C(=O)N[C@@H](CC(C)C)C(=O)N[C@@H](CC(C)C)C(=O)N[C@@H](CCCCN)C(=O)N[C@@H](CCC(N)=O)C(=O)N[C@@H](CCC(=O)O)C(=O)N[C@@H](CCCNC(=N)N)C(=O)N[C@@H](CCC(N)=O)C(=O)N[C@@H](CCCCN)C(=O)N[C@@H](CCCCN)C(=O)N[C@@H](CCC(N)=O)C(=O)N[C@@H](CCCNC(=N)N)C(=O)N[C@@H](CCC(=O)O)C(=O)N[C@@H](CCCCN)C(=O)N[C@@H](C)C(=O)N[C@@H](CCC(=O)O)C(=O)N[C@@H](CCCCN)C(=O)N[C@@H](CC(N)=O)C(=O)N[C@@H](CCCCN)C(=O)N[C@@H](CCC(N)=O)C(=O)N[C@H](C(=O)N[C@@H](CC(C)C)C(=O)N[C@@H](C)C(=O)N[C@@H](CCC(N)=O)C(=O)N[C@H](C(N)=O)C(C)C)[C@@H](C)CC)[C@@H](C)CC)[C@@H](C)CC)C(C)C)C(C)C [compound 121] (H-IVLSLDVPIKLK([AEEA-AEEA-γGlu-C18 diacid])QILLKQERQKKQREKAEKNKQILAQV-NH2),> 100,-1.1,0.73,41.3

# Reference: patent publication US12679878B2, “CRF2 receptor agonists and their use in therapy” (SANOFI, priority 2020, dated 2026)
